Earlier results, collected in patent publication US20100209368A1, “METHOD AND PREPARATION FOR TREATING BALDNESS” (priority 2009, published 2010).

Assays:
[1] = not given; remark: listed apart in the source

Row | Molecule | stability upon addition of water or ethanol (PEG or isopropyl myristate with added water or ethanol) | stability in pure solvents (pure PEG or isopropyl myristate) | solubility in ethanol ([1]; ethanol) | solubility in isopropyl myristate ([1]; isopropyl myristate) | solubility in polyethylene glycol (PEG) ([1]; polyethylene glycol) | solubility in water [1]
1 | O=C(OOC(=O)c1ccccc1)c1ccccc1 [Benzoyl peroxide, benzoyl peroxide] | greatly increased | not stable | slight solubility | soluble | soluble | low solubility
2 | zinc pyrithione |  |  |  |  |  | sparingly soluble
